Format in all cases: in vivo
Assay [1] concerns Echinochloa crus-galli var. formosensis at the three-leaf stage. The assay is described as follows: Comparative Example: herbicidal effect test by application during growth period of paddy rice (three-leaf stage, Table 7). The note with it: active ingredient 7.5 g per 10 ares, emulsifiable concentrate applied by dropper to flooded pots, 21 days after chemical application, triplicate; for inhibition at 75 g/ha: 504 h, read-out: Weed inhibition rate (%). As to the method: As an example, the herbicidal effect on Echinochloa crus-galli var. formosensis at the three-leaf stage was confirmed by the following method, and the results are specifically shown in Table 7 as a comparative example.
(§1) Wagner pots with an area of […] were filled with paddy soil, followed by addition of water and incorporation of chemical fertilizer (N:P:K = 16:16:16), after which puddling was performed. After that, 30 seeds of Echinochloa crus-galli var. formosensis were sown at a depth of 0 cm to 1 cm. Immediately after sowing, the pots were flooded and a water depth of approximately 3 cm was maintained. Subsequent management was conducted in a glass greenhouse. When Echinochloa crus-galli var. formosensis reached the three-leaf stage, an emulsifiable concentrate prepared according to Formulation Example 5 using the compound shown below was diluted with water, and a specified amount of the diluted solution was applied by dropper. The amount of the active ingredient to be applied was equivalent to 7.5 g per 10 ares. The test was conducted in triplicate for each chemical concentration group, and the weed inhibition rate (%) was determined 21 days after chemical application using the following formula (Math. 1).

Assay [2] deals with Echinochloa crus-galli. The assay is described as follows: Test Example 7: herbicidal effect test by soil application in upland field (low dose). The following applies: Echinochloa crus-galli, 7.5 g per 10 ares, sprayed one day after sowing, 14 days after application, read-out: weed inhibition rate. The method, boiled down: (§2)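 Duplicate pots of alluvial loam, seeds incorporated in the surface 1 cm. Soil surface sprayed 1 d after sowing (EC in water, 100 L/10 a; 7.5 g a.i./10 a). Endpoint: % inhibition, day 14.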

For assay [3], the system named is Digitaria ciliaris. The description is as above. The note with it: Digitaria ciliaris, 7.5 g per 10 ares, sprayed one day after sowing, 14 days after application, read-out: weed inhibition rate. The essentials: as §2
The subject of assay [4] is Echinochloa crus-galli. In words: Test Example 8: herbicidal effect test by stem and leaf treatment in upland field (low dose). The note with it: Echinochloa crus-galli; 7.5 g per 10 ares; sprayed seven days after sowing, upland soil; 14 days after application; read-out: weed inhibition rate.
The test system of assay [5] is Echinochloa crus-galli var. formosensis. The assay is described as follows: Test Example 5: herbicidal effect test by soil application in paddy rice (low dose). The note with it: Echinochloa crus-galli, soil, 336 h; 7.5 g per 10 ares; applied immediately after sowing, flooded pots; 14 days after application; read-out: weed inhibition rate. The essentials: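 7.5 g a.i./10 a applied by dropper into ~3 cm floodwater immediately post-sowing (seeds 0–1 cm, 30 per species; puddled fertilized paddy soil, glasshouse). Duplicates; day-14 inhibition %.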

Assay [6] has the same test system. In words: Test Example 1: herbicidal effect test by soil application in paddy rice. The note with it: Echinochloa crus-galli, soil, 336 h; 120 g active ingredient per 10 ares; applied immediately after sowing, flooded pots; 14 days after application; read-out: weed inhibition rate. The method, boiled down:
(§3)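 Pre-emergence paddy soil application, 120 g a.i./10 a, emulsifiable concentrate diluted in water, applied by dropper right after sowing. Seeds (30/species) sown 0–1 cm in puddled, fertilized soil; flooded ~3 cm; glass greenhouse.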

Assay [7] shares this test system. The assay is described as follows: Test Example 2: herbicidal effect test by application during growth period of paddy rice. The following applies: Echinochloa crus-galli; 120 g per 10 ares; applied seven days after sowing, flooded pots; 14 days after application; read-out: weed inhibition rate. The method, boiled down:
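Greenhouse pots of flooded paddy soil, seeded shallowly with 30 seeds per weed, are treated on day 7 by dropper with diluted emulsifiable concentrate equal to 120 g a.i./10 a. Duplicate pots are scored for inhibition rate 14 days post-application.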

The subject of assay [8] is Amaranthus viridis. The assay is described as follows: Test Example 7: herbicidal effect test by soil application in upland field (low dose). The note with it: 7.5 g per 10 ares, sprayed one day after sowing, upland soil, 14 days after application, read-out: weed inhibition rate.
In assay [9] the test system is Echinochloa crus-galli. The assay is described as follows: Test Example 3: herbicidal effect test by soil application in upland field. The note with it: Echinochloa crus-galli, 120 g per 10 ares, sprayed one day after sowing, 14 days after application, read-out: weed inhibition rate. The method, boiled down: (§4)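 Weed inhibition (%) was assessed 14 days after treatment, in duplicate per concentration group. Seeds had been mixed into the upper 1 cm of upland alluvial loam, and the soil surface was sprayed one day later with the diluted emulsifiable concentrate at 120 g active ingredient per 10 ares.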

Assay [10] has as its system Amaranthus viridis. The assay is described as above. The note with it: Amaranthus viridis, 120 g per 10 ares, sprayed one day after sowing, 14 days after application, read-out: weed inhibition rate. The method, boiled down: as §4
For assay [11], the system named is Digitaria ciliaris. Described as above. The note with it: Digitaria ciliaris, 120 g per 10 ares, sprayed one day after sowing, 14 days after application, read-out: weed inhibition rate. The method, boiled down: as §4
Assay [12] concerns Echinochloa crus-galli. The assay is described as follows: Test Example 4: herbicidal effect test by stem and leaf treatment in upland field. The following applies: Echinochloa crus-galli; 120 g per 10 ares; sprayed seven days after sowing, upland soil; 14 days after application; read-out: weed inhibition rate.
Assay [13] relates to Echinochloa crus-galli var. formosensis. In words: Test Example 6: herbicidal effect test by application during growth period of paddy rice (low dose). The note with it: Echinochloa crus-galli; 7.5 g per 10 ares; applied seven days after sowing, flooded pots; 14 days after application; read-out: weed inhibition rate. The essentials:
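Puddled, fertilised paddy soil was sown with 30 seeds per species and flooded to about 3 cm. After 7 days in a glass greenhouse, the diluted emulsifiable concentrate went into the water by dropper at 7.5 g/10 a. Effect scored at 14 days.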

For assay [14], the system named is Digitaria ciliaris. In words: Test Example 4: herbicidal effect test by stem and leaf treatment in upland field. The note with it: Digitaria ciliaris; 120 g per 10 ares; sprayed seven days after sowing, upland soil; 14 days after application; read-out: weed inhibition rate.
The subject of assay [15] is Monochoria vaginalis. In words: Test Example 1: herbicidal effect test by soil application in paddy rice. The note with it: Pontederia vaginalis, soil, 336 h; 120 g active ingredient per 10 ares; applied immediately after sowing, flooded pots; 14 days after application; read-out: weed inhibition rate. The essentials:
(§5)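 Inhibition rate (%) read 14 days after treatment, duplicate pots. Water-diluted emulsifiable concentrate was applied by dropper at 120 g active ingredient/10 ares right after sowing. Seeds (30 per species, 0–1 cm deep) went into puddled paddy soil kept flooded at about 3 cm in a greenhouse.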

Assay [16] relates to Lindernia pyxidaria. The description is as above. The following applies: 336 h, 120 g active ingredient per 10 ares, applied immediately after sowing, flooded pots, 14 days after application, read-out: weed inhibition rate. The method, boiled down:
as §5

In assay [17] the test system is Scirpus juncoides. The description is as above. The note with it: Schoenoplectiella juncoides, soil, 336 h; 120 g active ingredient per 10 ares; applied immediately after sowing, flooded pots; 14 days after application; read-out: weed inhibition rate. The method, boiled down:
as §3

Assay [18] has as its system Chenopodium album. The assay is described as follows: Test Example 4: herbicidal effect test by stem and leaf treatment in upland field. The following applies: 120 g per 10 ares, sprayed seven days after sowing, upland soil, 14 days after application, read-out: weed inhibition rate.
Assay [19] concerns Scirpus juncoides. In words: Test Example 5: herbicidal effect test by soil application in paddy rice (low dose). The following applies: Schoenoplectiella juncoides, 336 h, 7.5 g per 10 ares, applied immediately after sowing, flooded pots, 14 days after application, read-out: weed inhibition rate. As to the method: The present test was conducted in duplicate for each chemical concentration group, and the weed inhibition rate (%) was determined 14 days after chemical application using the following formula (Math. 1). [formula]
as §1, with “that,” for “that, 30”, “formosensis, broad-leaved weeds (Monochoria vaginalis), and Scirpus juncoides” for “formosensis”, “cm, 30 seeds each.” for “cm.”, “Immediately thereafter,” for “When Echinochloa crus-galli var. formosensis reached the three-leaf stage,”, “ares.” for “ares. The test was conducted in triplicate for each chemical concentration group, and the weed inhibition rate (%) was determined 21 days after chemical application using the following formula (Math. 1).”
The present test was conducted in duplicate for each chemical concentration group, and the herbicidal effect was evaluated 14 days after chemical application using the same criteria as in Test Example 1.

Assay [20] concerns Chenopodium album. The assay is described as follows: Test Example 3: herbicidal effect test by soil application in upland field. The following applies: 120 g per 10 ares, sprayed one day after sowing, 14 days after application, read-out: weed inhibition rate. The method, boiled down:
as §4

SMILES strings stand for the structures. A value given as a limit tells only on which side of the number the result lay.

Take `C=C1C(OCc2ccccc2C)C2(C)CCC1(C(C)C)O2` (centres unmarked): the “Weed inhibition rate (%)” value in [1] was found to be 20%.

On to `Cc1ccccc1COC1CC2(C(C)C)CCC1(C)O2` (centres unmarked), for which the inhibition at 75 g/ha in assay [1] amounted to 73%.

As for `CC(C)[C@]12C[C@@H](OCc3ccccc3F)[C@](C)(C[C@H]1O)O2` [1-68, (1R,2R,4S,5R)-5-[(2-fluorophenyl)methoxy]-4-methyl-1-isopropyl-7-oxabicyclo[2.2.1]heptan-2-ol], the inhibition at 75 g/ha in [2], in assay [3], in assay [4], in assay [5], in assay [8] and in [13] was no less than 80% each time. The pest or weed control at 1200 g/ha in assay [6] is no less than 80%. Also, the inhibition at 1200 g/ha in assay [7], in assay [9], in assay [10], in assay [11] and in assay [12] was no less than 80% each time.

For `CC(C)[C@]12C[C@@H](OCc3ccccc3F)[C@](C)(C[C@@H]1C)O2` [1-93, (1S,2R,4R,5S)-2-[(2-fluorophenyl)methoxy]-1,5-dimethyl-4-isopropyl-7-oxabicyclo[2.2.1]heptane], the pest or weed control at 1200 g/ha in [6] was no less than 80%. For the same compound, the inhibition at 1200 g/ha in assay [14], in [7], in assay [9], in [11] and in assay [12] was no less than 80% in each case. Further, the inhibition at 75 g/ha in assay [1] was 100%.

In the case of `CC(C)[C@]12C[C@@H](OCc3ccccc3F)[C@](C)(CC1c1ccc(F)cc1)O2` (stereo partly drawn) [1-924, (1S,2R,4R)-2-((2-fluorobenzyl)oxy)-5-(4-fluorophenyl)-4-isopropyl-1-methyl-7-oxabicyclo[2.2.1]heptane], the pest or weed control at 1200 g/ha in [15], in assay [16], in [6] and in assay [17] was no less than 80% each time. The inhibition at 1200 g/ha in assay [18], in [14], in [7], in assay [9] and in assay [12] was no less than 80% each time.

In the case of `CC(C)[C@]12C[C@@H](OCc3ccccc3C(F)(F)F)[C@](C)(CC1=O)O2` [2-29, (1R,4S,5R)-1-isopropyl-4-methyl-5-((2-(trifluoromethyl)benzyl)oxy)-7-oxabicyclo[2.2.1]heptan-2-one], the inhibition at 75 g/ha in assay [19], in assay [2], in [4], in assay [5] and in assay [8] was no less than 80% throughout. Moreover, the pest or weed control at 1200 g/ha in [6] and in assay [17] was no less than 80% in each case. The inhibition at 1200 g/ha in assay [14], in assay [7], in assay [9], in assay [10], in [20] and in assay [11] was no less than 80% in each case. In addition, the inhibition at 1200 g/ha in [12] was no less than 80%.

Source of the values: EP4707280A1, “1,4-CINEOLE DERIVATIVE AND INTERMEDIATE THEREOF, HERBICIDE CONTAINING SAID DERIVATIVE AS ACTIVE INGREDIENT, METHOD FOR USING HERBICIDE, AND METHOD FOR PREPARING AGROCHEMICAL COMPOSITION” (HOKKO CHEMICAL INDUSTRY CO., LTD., priority 2023, dated 2024).
